Laboratory results taken from BindingDB's records for doi:10.1016/j.bmcl.2008.11.105 (Pfizer, 2009).

Biological target: T1, Protein kinase C zeta type (Homo sapiens, UniProt Q05513)
T1 sequence (Q05513 whole entry): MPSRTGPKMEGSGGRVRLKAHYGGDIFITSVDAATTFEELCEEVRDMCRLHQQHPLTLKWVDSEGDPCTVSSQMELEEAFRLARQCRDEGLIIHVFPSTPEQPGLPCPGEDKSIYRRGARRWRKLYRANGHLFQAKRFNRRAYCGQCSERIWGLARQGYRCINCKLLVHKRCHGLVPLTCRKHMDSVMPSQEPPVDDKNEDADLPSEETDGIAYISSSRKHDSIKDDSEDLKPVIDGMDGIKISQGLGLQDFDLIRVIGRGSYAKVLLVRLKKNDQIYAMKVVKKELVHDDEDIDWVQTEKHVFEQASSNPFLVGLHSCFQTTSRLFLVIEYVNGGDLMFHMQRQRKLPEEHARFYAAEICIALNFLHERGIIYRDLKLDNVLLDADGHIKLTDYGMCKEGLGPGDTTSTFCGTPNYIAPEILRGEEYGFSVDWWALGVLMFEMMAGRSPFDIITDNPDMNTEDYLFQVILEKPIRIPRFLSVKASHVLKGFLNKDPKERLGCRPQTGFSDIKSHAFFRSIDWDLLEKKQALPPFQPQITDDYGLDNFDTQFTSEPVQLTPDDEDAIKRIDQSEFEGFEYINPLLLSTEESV
Assay: PKC Enzyme Assay
Settings: pH 7.5; 23 °C
Procedure: Protein kinase C (PKC), zeta activity was measured by following the phosphorylation of a biotinylated peptide substrate in the presence of ATP using AlphaScreen technology (Perkin Elmer, Waltham, MA). The AlphaScreen assay format relies on bringing a streptavidin coated donor bead and an IgG-protein A acceptor bead into proximity through the interaction between biotinylated phosphorylated peptide and a phospho-specific antibody to the peptide. Upon excitation of the donor bead at 680 nm, excited state singlet oxygen is produced and diffuses to acceptor beads in close proximity (200 nm), activating a cascade of fluorophores resulting in emission between 520-620 nm. Kinase activity is quantified through the evaluation of this emission signal. Compounds are evaluated as potential inhibitors of the PKC kinase activity by measuring their effects on the phosphorylation of the peptide substrate. IC50 value determinations were made for potential inhibitors by testing compounds at 12 concentrations in three-fold serial dilutions with each concentration tested in triplicate. Reactions were carried out for 60 minutes at room temperature. Reactions were then quenched by addition of stop solution. […] Plates were then read on a Fusion reader after an overnight equilibrium at room temperature.

IC50	Compound
6.84 µM	CN1CCN(c2cccc3[nH]c(-c4n[nH]c5cc(-c6ccc7ncccc7c6)ccc45)nc23)CC1 [indazole-benzimidazole, 23]
3.02 µM	CN1CCN(c2cccc3[nH]c(-c4n[nH]c5cc(-c6ccc7ccoc7c6)ccc45)nc23)CC1 [indazole-benzimidazole, 25]
